Here are results for 29 molecules from PubChem BioAssay AID1259408 (Genetic Toxicology Data Bank (GENE-TOX), 2018).

This data set concerns GENE-TOX genotoxicity assays, various organisms and cells. Briefly: GENE-TOX mutagenicity studies. Conditions: for call: Assay Type: In vivo carcinogenicity studies.
Where [1] appears, read: Species/Cell Type: Human lymphocytes, Assay Type: Sister-chromatid exchange (SCE) in vitro, Assay Code: SCL+D, Dose Response: With dose response, Evaluation Type: Evaluation B (Post-1980).
[2] abbreviates: Species/Cell Type: Human, Assay Type: Sister-chromatid exchange (SCE) in vitro, Assay Code: SC1+D, Dose Response: With dose response, Evaluation Type: Evaluation B (Post-1980).
[3] abbreviates: Species/Cell Type: Mammalian polychromatic erythrocytes, Assay Type: Micronucleus test, chromosome aberrations, Assay Code: MNTT, Evaluation Type: Evaluation B (Post-1980).
Setting [4] is: Species/Cell Type: Nonhuman, Assay Code: CCG+, Evaluation Type: Evaluation A (Pre-1980).
Where [5] appears, read: Species/Cell Type: Salmonella typhimurium (one or more of the five standard strains: TA98, TA100, TA1535, TA1537, and TA1538), Assay Type: Histidine reverse gene mutation, Ames assay, Assay Code: SAL+*, Activation: With metabolic activation, Evaluation Type: Evaluation A (Pre-1980).
Where [6] appears, read: Species/Cell Type: Drosophila melanogaster, Assay Type: Sex-linked recessive lethal gene mutation, Assay Code: SRL+, Evaluation Type: Evaluation A (Pre-1980).
Where [7] appears, read: Species/Cell Type: Salmonella typhimurium (one or more of the five standard strains: TA98, TA100, TA1535, TA1537, and TA1538), Assay Type: Histidine reverse gene mutation, Ames assay, Assay Code: SAL+, Evaluation Type: Evaluation A (Pre-1980).
Setting [8] is: Species/Cell Type: Allium cepa, Assay Type: Chromosome aberrations, Assay Code: ALC+D, Dose Response: With dose response, Evaluation Type: Evaluation A (Pre-1980).
Setting [9] is: Species/Cell Type: Mammalian polychromatic erythrocytes, Assay Type: Micronucleus test, chromosome aberrations, Assay Code: MNT+, Evaluation Type: Evaluation B (Post-1980).
Where [10] appears, read: Species/Cell Type: Nonhuman, Assay Type: Sister-chromatid exchange (SCE) in vitro, Assay Code: SC2+D, Dose Response: With dose response, Evaluation Type: Evaluation B (Post-1980).
Setting [11] is: Species/Cell Type: Salmonella typhimurium (one or more of the five standard strains: TA98, TA100, TA1535, TA1537, and TA1538), Assay Type: Histidine reverse gene mutation, Ames assay, Assay Code: SALT, Evaluation Type: Evaluation A (Pre-1980).
Setting [12] is: Species/Cell Type: Mammalian polychromatic erythrocytes, Assay Type: Micronucleus test, chromosome aberrations, Assay Code: MNT+, Evaluation Type: Evaluation A (Pre-1980).
The mark [13] stands for this setting: Species/Cell Type: Nonhuman, Assay Code: CCG+L, Evaluation Type: Evaluation A (Pre-1980).

Active and inactive are the calls of the source. No rule for the calls is given here.

As for `Oc1ccccc1O`, the mutagenic call reads like this: (Species/Cell Type: Allium cepa, Assay Type: Chromosome aberrations, Assay Code: ALC+, Evaluation Type: Evaluation A (Pre-1980)) “active; positive”; under setting [1], “active; positive”; under setting [2], “active; positive”; under setting [3], “no conclusion”.
On to `Cc1ccccc1N=Nc1c(O)ccc2ccccc12`, for which, for the setting “Species/Cell Type: Bacillus subtilis (H17 vs M45T), Assay Type: Rec-assay, spot test, DNA effects (bacterial DNA repair), Assay Code: REXT, Evaluation Type: Evaluation A (Pre-1980)”, the mutagenic call was “no conclusion”. For the same molecule, under setting [4], the call is “active; positive”.
As for `COc1cc(O)c2c(c1)C(=O)c1cc(C)cc(O)c1C2=O`, under setting [5], the mutagenic call is “active; positive”.
On to `CCN(CC)CCn1nc2c3c(c(C)ccc31)Sc1ccccc1-2`, for which the mutagenic call was “active; positive” under setting [6]; “active; positive” (Species/Cell Type: Mouse lymphoma (L5178Y) cells, Assay Type: Forward gene mutation at the thymidine kinase (TK) locus, chromosome aberrations, Assay Code: L51+, Evaluation Type: Evaluation A (Pre-1980)); “active; positive” (Species/Cell Type: Neurospora crassa, Assay Type: Forward gene mutation, Assay Code: NEF+, Evaluation Type: Evaluation A (Pre-1980)).
`CCCN1CCN(c2ccc([N+](=O)[O-])c3no[n+]([O-])c23)CC1`: the mutagenic call under setting [7] is “active; positive”.
For `CO[C@H](C)[C@](O)(C(=O)OCC1=CCN2CC[C@H](O)[C@@H]12)C(C)C`, the mutagenic call is “active; positive” under setting [8]; “active; positive” (Species/Cell Type: Aspergillus nidulans, Assay Type: Forward gene mutation, Assay Code: ASF+, Evaluation Type: Evaluation A (Pre-1980)); “no conclusion” (Species/Cell Type: Drosophila melanogaster, Assay Type: Aneuploidy, sex chromosome gain, chromosome aberrations, Assay Code: DAGT, Evaluation Type: Evaluation A (Pre-1980)); “active; positive” (Species/Cell Type: Drosophila melanogaster, Assay Type: Aneuploidy, whole sex chromosome loss, chromosome aberrations, Assay Code: DAC+M, Evaluation Type: Evaluation A (Pre-1980)); “active; positive” under setting [6]; “no conclusion” (Species/Cell Type: Drosophila melanogaster, Sex: Male, Assay Type: Heritable translocation test, chromosome aberrations, Assay Code: DHTT, Evaluation Type: Evaluation A (Pre-1980)). For the same molecule, the mutagenic call by setting is: under setting [9], “active; positive”; under setting [10], “active; positive”.
On to `O=C(Nc1ccc(Br)cc1)c1cc(Br)cc(Br)c1O`, for which the mutagenic call under setting [3] is “no conclusion”.
As for `O=[N+]([O-])O.[Cr]`, the mutagenic call under setting [11] is given as “no conclusion”.
For the molecule `CC(=O)Nc1ccccc1O`, the mutagenic call (Species/Cell Type: Human, Assay Type: Sister-chromatid exchange (SCE) in vitro, Assay Code: SC1T, Evaluation Type: Evaluation B (Post-1980)) is reported as “no conclusion”.
As for `O=c1ccc2ccccc2o1`, the mutagenic call under setting [8] was “active; positive”.
As to `C=CCc1ccc(O)c(OC)c1`, the mutagenic call runs as follows: (Species/Cell Type: Human lymphocytes, Assay Type: Sister-chromatid exchange (SCE) in vitro, Assay Code: SCLT, Evaluation Type: Evaluation B (Post-1980)) “no conclusion”; under setting [9], “active; positive”; (Species/Cell Type: Salmonella typhimurium, Assay Type: Forward and reverse gene mutation, host-mediated assay, Assay Code: HMAT, Evaluation Type: Evaluation A (Pre-1980)) “no conclusion”.
`COc1cc2c(c3oc(=O)c4c(c13)CCC4=O)[C@H]1[C@@H](O2)O[C@@H](Cl)[C@@H]1Cl`: under setting [7], the mutagenic call was “active; positive”.
As for `COc1cc(C=O)ccc1O`, the mutagenic call runs as follows: under setting [1], “active; positive”; under setting [2], “active; positive”.
Regarding `CS(=O)(=O)c1ccc([C@H](O)[C@H](CO)NC(=O)C(Cl)Cl)cc1`, under setting [11], the mutagenic call is “no conclusion”.
Turning to `CCN(CC)N=Nc1ccccc1`, the mutagenic call under setting [12] is “active; positive”. In addition, the call under setting [13] was “active; positive”.
Take `COc1nn(CSP(=S)(OC)OC)c(=O)s1`: the mutagenic call (Species/Cell Type: Nonhuman, Assay Type: Sister-chromatid exchange (SCE) in vitro, Assay Code: SC2+D*, Activation: With metabolic activation, Dose Response: With dose response, Evaluation Type: Evaluation B (Post-1980)) is “active; positive”.
Regarding `Nc1ccc(-c2nc(N3CCOCC3)c3ccccc3n2)s1`, the mutagenic call under setting [11] is “no conclusion”.
As to `C=COC(C)=O`, the mutagenic call by setting is: under setting [1], “active; positive”; under setting [2], “active; positive”; under setting [9], “active; positive”; under setting [10], “active; positive”; (Species/Cell Type: Salmonella typhimurium (one or more of the five standard strains: TA98, TA100, TA1535, TA1537, and TA1538), Assay Type: Histidine reverse gene mutation, Ames assay, Assay Code: SAL-, Evaluation Type: Evaluation A (Pre-1980)) “inactive; negative”; (Species/Cell Type: Syrian hamster embryo (SA7/SHE) cells, Assay Type: Cell transformation, viral enhanced, Assay Code: CT7+, Evaluation Type: Evaluation A (Pre-1980)) “active; positive”. The call under setting [13] was “active; positive”.
In the case of `CCN(CCCCCCN(CC)C(=O)C(Cl)Cl)C(=O)C(Cl)Cl`, for the setting “Species/Cell Type: Human, Sex: Male, Assay Type: Sperm morphology, Assay Code: SPH+, Evaluation Type: Evaluation A (Pre-1980)”, the mutagenic call was “active; positive”.
Take `CNC=O`: under “Species/Cell Type: Escherichia coli WP2, Assay Type: Tryptophan reverse gene mutation, Assay Code: WP2-, Evaluation Type: Evaluation A (Pre-1980)”, the mutagenic call was “inactive; negative”.
As for `C/C=C1/C[C@@H](C)[C@](O)(CO)C(=O)OCC2=CC[N+]3([O-])CC[C@@H](OC1=O)[C@@H]23` (some centres undefined), the mutagenic call (Species/Cell Type: Drosophila melanogaster, Assay Type: Sex-linked recessive lethal gene mutation, Assay Code: SRLT, Evaluation Type: Evaluation A (Pre-1980)) is recorded as “no conclusion”.
For `Cc1cc(-c2ccc(N)c(C)c2)ccc1N`, the mutagenic call (Species/Cell Type: Fischer rat embryo (RLV/1706) cells, Assay Type: Cell transformation, viral enhanced, Assay Code: CTR+, Evaluation Type: Evaluation A (Pre-1980)) was “active; positive”; the mutagenic call (Species/Cell Type: Human diploid fibroblasts, Assay Type: Unscheduled DNA synthesis (UDS) in vitro, DNA effects, Assay Code: UDHT, Evaluation Type: Evaluation A (Pre-1980)) is “no conclusion”; the mutagenic call under setting [12] is “active; positive”; the mutagenic call under setting [10] is “active; positive”; the mutagenic call under setting [5] was “active; positive”. Besides, under setting [4], the call was “active; positive”.
On to `Cc1ccc(N=Nc2c(O)c(C(=O)O)cc3ccccc23)c(S(=O)(=O)O)c1`, for which the mutagenic call under setting [11] is “no conclusion”.
For `Cc1cc(N=Nc2ccc(C)c(N=Nc3cc(C)c(N)cc3N)c2)c(N)cc1N`, the mutagenic call (Species/Cell Type: Bacillus subtilis (H17 vs M45), Assay Type: Rec-assay, spot test, DNA effects (bacterial DNA repair), Assay Code: REW-, Evaluation Type: Evaluation A (Pre-1980)) is “inactive; negative”.
With `Oc1cccc2cccnc12`, the mutagenic call reads like this: (Species/Cell Type: Human lymphocytes, Assay Type: Sister-chromatid exchange (SCE) in vitro, Assay Code: SCL+, Evaluation Type: Evaluation B (Post-1980)) “active; positive”; (Species/Cell Type: Human, Assay Type: Sister-chromatid exchange (SCE) in vitro, Assay Code: SC1+, Evaluation Type: Evaluation B (Post-1980)) “active; positive”; under setting [3], “no conclusion”; (Species/Cell Type: Neurospora crassa, Assay Type: Aneuploidy, chromosome aberrations, Assay Code: NEN-, Evaluation Type: Evaluation A (Pre-1980)) “inactive; negative”; (Species/Cell Type: Saccharomyces cerevisiae, Assay Type: Mitotic recombination or gene conversion, Assay Code: YEC-, Evaluation Type: Evaluation A (Pre-1980)) “inactive; negative”; under setting [5], “active; positive”. Besides, the mutagenic call (Species/Cell Type: Vicia faba, Assay Type: Chromosome aberrations, Assay Code: VIC+, Evaluation Type: Evaluation A (Pre-1980)) is “active; positive”. Moreover, the call (Species/Cell Type: Nonhuman, Assay Code: CCG-, Evaluation Type: Evaluation A (Pre-1980)) was “inactive; negative”.
In the case of `COc1ccc(Cn2ccnc2/C=C/c2ccc([N+](=O)[O-])o2)cc1`, for the setting “Species/Cell Type: Neurospora crassa, Assay Type: Reverse gene mutation, Assay Code: NER+, Evaluation Type: Evaluation A (Pre-1980)”, the mutagenic call was “active; positive”.
For `CC(C(=O)O)c1ccc(C(=O)c2ccccc2)s1` (centres undefined), the mutagenic call (Species/Cell Type: Human lymphocytes, Assay Type: Sister-chromatid exchange (SCE) in vivo, Assay Code: SCY+, Evaluation Type: Evaluation B (Post-1980)) is “active; positive”.
Regarding `CN1C[C@H](C(=O)N[C@]2(C)O[C@@]3(O)[C@@H]4CCCN4C(=O)[C@H](Cc4ccccc4)N3C2=O)C=C2c3cccc4[nH]cc(c34)C[C@H]21`, under “Species/Cell Type: Rodents, Sex: Male, Assay Type: Dominant lethal test, Assay Code: DLT+, Evaluation Type: Evaluation A (Pre-1980)”, the mutagenic call is “active; positive”.
Turning to `CCCCOc1ccc2nc3cc(Cl)ccc3c(NCCCNCCCl)c2n1`, the mutagenic call (Species/Cell Type: Chinese hamster ovary (CHO) cells, Assay Type: Forward gene mutation at the HPRT locus, Assay Code: CHO+, Evaluation Type: Evaluation B (Post-1980)) is “active; positive”.
